Consider 6 molecules from US7288273B1, “Gallotannins and ellagitannins as regulators of cytokine release” (The Penn State Research Foundation, priority 2000, dated 2007).

Assay [1] concerns TNF-α secretion from h-PBMC's. As to the kind of experiment: TNF-α release from h-PBMC's, ELISA. Type of assay: cell-based, human. To be noted: for TNF-α secreted in the presence of 17c-21c: 24 hours, ± SD. As for the experimental part: (§1) Authentic samples of agrimoniin and coriariin A were supplied by Professor Yoshida (Okayama University, Japan). Dimeric gallotannin (analog of coriariin A) and β-D-PGG were synthesized as described. LPS (E. coli 055:B5 phenol extract, MW range 50-100 KD). Ficoll-Histopaque (ρ=1.077 g/mL), Fetal Bovine Serum, sterile, hybridoma tested (FCS), gentamicin 10 mg/mL. L-glutamine, 200 mM. Dextran B-512 Leuconostoc Av M.W. 580000, and Trypan Blue stain were purchased from Sigma. Hanks Buffer Saline Solution 1×, with phenol red, mediatech (HBSS) and RPMI 1640 1×, mediatech were purchased from Fisher Scientific, Human IL-1β and TNF-α Enzyme Linked ImmunoSorbent Assay (ELISA) kits were purchased from R and D Systems, Minneapolis, Minn. Fresh heparinized blood was obtained from health human subjects (ages 20-34).
(§2) Dose-Response Data: General Procedure. H-PBMC's were isolated by reported procedures (10. 18). The cells counted and the viability was determined by Trypan Blue exclusion (typically, viability exceeded 95%). The concentration of the cells in the 0.5 mL wells was adjusted to 1×10^6 cells/well by diluting with the required amount of RPMI.
(§3) The appropriate amount of a tannin (or LPS) stock solution in HBSS was added to each well to furnish the concentration values reported in the Figures. […] The culture plates were incubated in a 5% CO2, 37° C. humidified incubator for the indicated time. At the end of the time interval, 450 μL of the culture supernatant from each well was harvested, after centrifugation at 400 g, 25° C., 10 min. with brake, and stored at −78° C. pending ELISA analysis for the cytokine(s). The ELISA assays were conducted per the manufacturer's instructions using standard calibration curves to calculate cytokine concentration from observed absorbance readings. The cytokine values reported are averages of three runs±SE.
(§4) The dimeric antitumor ellagitannins coriariin A and agrimoniin, the monomeric gallotannin β-D-pentagalloylglucose (β-D-PGG) and the dimeric gallotannin of this invention were all examined in this study. The dimeric gallotannin is an analog of coriariin A and is identical to the parent ellagitannin except that the galloyl rings at O(4) and O(6) are not joined in a hexahydroxydiphenoyl (HHDP) linkage. h-PBMC's were incubated with the compound under investigation for the indicated length of time and the amounts of both IL-1β and, independently, TNF-α, present in the culture supernatants was determined using commercially available ELISA kits. In each case, LPS was used as a positive control while untreated cells were reserved as negative controls.
In the first study, the induction of TNF-α secretion from h-PBMC's in the presence of each compound 17c-21c was measured. The h-PBMC's were incubated with each compound for 24 hours. The TNF-α levels in the cell culture supernatant were assayed by Enzyme Linked ImmunoSorbant Assay (ELISA). The data point for each assay represent the mean of triplicate measurements. […] (See FIG. 11).

Assay [2] concerns sarcoma-180 tumors. To be noted: mice infected with sarcoma-180 tumors; cited from earlier work.
The subject of assay [3] is IL-1β secretion from h-PBMC's. As to the kind of experiment: IL-1β release from h-PBMC's, ELISA. It counts as cell-based, human. To be noted: h-PBMC's 2nd subject, ± SD. As for the experimental part: as §1, §2, §3, §4
In the third study, compounds 17c-20c were examined for their ability to induce secretion of IL-1β from h-PBMC's (FIG. 16). Recall from the introduction that the cytokine IL-1β is also released in an LPS-stimulated septic shock response. The compounds that cause very little secretion of IL-1β or none at all will be the optimal compounds for potential septic shock therapeutics because they will be less likely themselves to induce a septic shock response.
A general note: In an ELISA, binding on a coated surface is turned into a signal by an enzyme label.

In assay [4] the test system is LPS induced TNF-α secretion from h-PBMC's. As to the kind of experiment: Inhibition of LPS induced TNF-α secretion from h-PBMC's. To be noted: LPS 5 μg/mL; for TNF-α secreted in the presence of LPS and 17c-20c: compound 10 μg/mL added after 45 minutes, h-PBMC's 3rd subject, ± SD. It counts as cell-based, human. As for the experimental part: In the second study, the ability of compounds 17c-20c to inhibit LPS induced TNF-α production in h-PBMC's was investigated using four assays. The first experiment was a kinetics run in which the h-PBMC's were initially incubated with a fixed concentration of LPS (5 μg/mL) for 45 minutes. This incubation period was followed by addition of a fixed concentration (10 μg/mL) of compounds 17c-20c. The cells were harvested at varying intervals of time. […] The optimal time was determined by comparing the amount of TNF-α secreted by LPS alone to the amount of TNF-α secreted by LPS and substrate at each time point.
The second assay determined the minimum amount of substrate required for inhibition. LPS (10 μg/mL) was incubated with h-PBMC's for 45 minutes followed by addition of 17c-20c at varying concentrations. The cell culture supernatant was harvested after 8 hours. The inherent variability in using cells from different subjects, or in the day of assay, made it difficult to compare overall effectiveness of inhibitors. Therefore, to more easily identify the concentration at which maximum inhibition occurs for a given compound, the TNF-α secretion was normalized by calculating a percent of maximum secretion value (based on LPS alone) (FIG. 13). […] The optimal concentration for inhibition varied between substrates, but the general dose response trend was the same. Overall, the maximum inhibition was 45% for 18c and 20c, and 25% for 19c.
The third assay investigated the ability of 17c, 18c, and 20c to inhibit LPS induced TNF-α secretion using a smaller dosage of LPS (5 μg/mL) (FIG. 14). Again, the response was dose dependent. The maximum inhibition was 45% for 17c and 20c, and 35% for 18c.
In the fourth assay the varying concentrations of substrates 17c-20c and LPS were added at the same time to determine the effect of addition sequence on the inhibition of TNF-α secretion (FIG. 15). The addition time seemed to make a difference in the overall dose response trend. However, maximum inhibition was the same as when the compounds were added 45 minutes after LPS addition (about 40% for each compound).
Finally, in the last study, analogs 19c and 20c were again tested for inhibition LPS induced TNF-α secretion (FIG. 17). In this assay a smaller dose of LPS was used to determine if inhibition was greater when much lower doses of LPS were present. The substrates were added 45 minutes after LPS addition and the cells were harvested after 8 hours. It doesn't appear as though the substrates are better inhibitors when smaller amounts of LPS are used, again perhaps reflecting receptor saturation with LPS at this dosage.

In the case of “1,1′-2,2′,3,3′,4,4′,6,6′-Tetrakis(3,4,5-trihyroxybenzoyl)-β,β′-D,D′-glucopyranosyl-(2,3′-oxy-di-benzoate) [Compound 21c]”, in assay [1], the “TNF-α secretion from h-PBMC's, in words” value is on record as “significant amount of TNF-α secretion”. In addition, the “TNF-α secreted in the presence of 17c-21c” value (“TNF-α secreted … of 17c-21c” for short) is given as 140.7 ± 50.1 pg/mL in assay [1] (compound 0.6 μM); 80.3 ± 38.1 pg/mL in assay [1] (compound 2.8 μM); 61.9 ± 11.7 pg/mL in assay [1] (compound 5.6 μM); 96.2 ± 8.9 pg/mL in assay [1] (compound 11.2 μM); 379.3 ± 156.6 pg/mL in assay [1] (compound 16.8 μM); 618.0 ± 182.0 pg/mL in assay [1] (compound 22.3 μM). In addition, the “TNF-α secreted … of 17c-21c” value in assay [1] (compound 27.9 μM) came to 899.0 ± 368.4 pg/mL.

In the case of `O=C(OC1O[C@@H]2COC(=O)c3cc(O)c(O)c(O)c3-c3c(cc(O)c(O)c3O)C(=O)O[C@H]2[C@H](OC(=O)c2cc(O)c(O)c(O)c2)[C@H]1OC(=O)c1cc(O)c(O)c(O)c1)c1cc(O)c(O)c(O)c1` (stereo partly drawn) [Compound 2, tellimagrandin II], the “antitumor effect, in words” value in assay [2] is on record as “much less effective antitumor agents”.

As for `O=C(OC[C@H]1O[C@@H](OC(=O)c2ccc(C(=O)O[C@@H]3O[C@H](COC(=O)c4cc(O)c(O)c(O)c4)[C@@H](OC(=O)c4cc(O)c(O)c(O)c4)[C@H](OC(=O)c4cc(O)c(O)c(O)c4)[C@H]3OC(=O)c3cc(O)c(O)c(O)c3)cc2)[C@H](OC(=O)c2cc(O)c(O)c(O)c2)[C@@H](OC(=O)c2cc(O)c(O)c(O)c2)[C@@H]1OC(=O)c1cc(O)c(O)c(O)c1)c1cc(O)c(O)c(O)c1` [Compound 17c, 1,1′-O-2,2′,3,3′,4,4′,6,6′-Tetrakis(3,4,5-trihydroxybenzoyl)-β,β′-D,D′-glucopyranosylterephthalate], the “IL-1β secreted in the presence of 17c-20c” value is reported as 0 pg/mL in assay [3] (compound 0.6 μM); 0 pg/mL in assay [3] (compound 2.9 μM); 3.2 ± 3.6 pg/mL in assay [3] (compound 5.9 μM); 329.7 ± 443.0 pg/mL in assay [3] (compound 11.8 μM); 140.5 ± 195.6 pg/mL in assay [3] (compound 17.6 μM); 630.6 ± 283.1 pg/mL in assay [3] (compound 23.5 μM). Also, the “IL-1β secreted in the presence of 17c-20c” value in assay [3] (compound 29.4 μM) turned out to be 690.1 ± 101.0 pg/mL. For the same molecule, the “TNF-α secreted … of 17c-21c” value in assay [1] (compound 0.6 μM) is reported as 0 pg/mL; in assay [1] (compound 2.9 μM), 0 pg/mL; in assay [1] (compound 5.9 μM), 0 pg/mL; in assay [1] (compound 11.8 μM) it was 0.26 ± 0.37 pg/mL; in assay [1] (compound 17.6 μM), 0 pg/mL; in assay [1] (compound 23.5 μM), 0.26 ± 0.37 pg/mL. For the same molecule, the “TNF-α secreted … of 17c-21c” value in assay [1] (compound 29.4 μM) turned out to be 2.5 ± 3.5 pg/mL. Moreover, the “TNF-α secreted in the presence of LPS and 17c-20c” value in assay [4] (time 1 h) is given as 511.2 ± 288.3 pg/mL; in assay [4] (time 4 h) it was 1896.3 ± 140.9 pg/mL; in assay [4] (time 8 h), 2477.0 ± 148.2 pg/mL; in assay [4] (time 12 h), 2574.4 ± 459.9 pg/mL; in assay [4] (time 16 h), 1811.6 ± 352.9 pg/mL; in assay [4] (time 24 h), 2266.1 ± 353.3 pg/mL. Moreover, the “maximum inhibition of LPS induced TNF-α secretion” value in assay [4] (3rd subject) was 45%.

With `O=C1OC[C@H]2OC(O)[C@@H]3OC(=O)c4cc(O)c(O)c(O)c4-c4c(cc(O)c(O)c4O)C(=O)O[C@H]3[C@@H]2OC(=O)c2cc(O)c(O)c(O)c2-c2c1cc(O)c(O)c2O` (stereo partly drawn) [pedunculagin], the “antitumor effect, in words” value in assay [2] is reported as “much less effective antitumor agents”.

Regarding `O=C(O[C@H]1[C@@H]2OC(=O)c3cc(O)c(O)c(O)c3-c3c(cc(O)c(O)c3O)C(=O)OC[C@H]2OC(O)[C@@H]1OC(=O)c1cc(O)c(O)c(O)c1)c1cc(O)c(O)c(O)c1` (stereo partly drawn) [tellimagrandin I], in assay [2], the “antitumor effect, in words” value is given as “much less effective antitumor agents”.

Turning to gemin A, in assay [2], the “antitumor effect, in words” value is recorded as “induce tumor regression”.
